The source of these data is US6562627B1, “High throughput method for measurement of physicochemical values” (BDC Pharma LLC, priority 1998, dated 2003).

For data set [1] the following is noted: cited from earlier work.
For data set [2] the following is noted: cited from earlier work. This is another data set of the same source.
The conditions of data set [3]: literature, cited from earlier work; for bulkpka2 (Ref.): second ionizable group.
On data set [4], the source says: (§1) k′app=k′HA([H^+]+^surfaceKa)/([H^+]+^bulkKa) Eq. 7
(§2) where k′app is the capacity factor of the test compound measured at different mobile phase pH conditions, and k′HA is the capacity factor of the non-ionized species. Nonlinear fitting of the three experimentally measured parameters [H+], k′app, and k′HA to eq. 7 can be used to obtain numerical estimates for both ^surface Ka and ^bulkKa of the compound.
(§3) k′app=k′A^−([H^+]/^surfaceKa+1)/([H^+]/^bulkKa+1) Eq. 8
(§4) The reason for developing eq. 7 is that eq. […] Both parameters (k′HA and k′A^−) can be treated as unknowns in the equations (like ^bulkKa and ^surfaceKa), and the experimental data can be used to calculate (by non-linear curve fitting) three parameters (k′HA (or k′A^−) and ^bulkKa and ^surfaceKa) instead of two (^bulkKa and ^surfaceKa). This reduces the number of experimental data to be collected, and still allows the determination of the desired parameters (^bulkKa and ^surfaceKa).
(§5) The conventional thinking regarding equations 7 and 8 is that k′HA and k′A^− (the capacity factors of the […] species) are constants that have to be determined experimentally in order to calculate ^bulkpKa and ^surfacepKa. […] This is problematic because it may require use of pH's greater than 8-9, which in the case of some test surfaces causes deterioration. […] If sufficient data are collected (no matter what the pH range is), non-linear curve fitting techniques can be used to fit three parameters (^bulkpKa, ^surfacepKa and k′HA (or k′A^−, depending on whether you use Eq. 7 or Eq. 8)) instead of two (^bulkpKa and ^surfacepKa).
The data was collected on 4.6×30 mm^esterIAM.PC^C10/C3 columns. Four ^esterIAM.PC^C10/C3 columns were used to collect all the experimental data.
(§6) The test compounds were injected as two distinct mixtures (acidic and basic compounds) to avoid acid/base interactions during the chromatographic runs. […] The retention time (tr) was determined for each compound and the corresponding capacity factor k′app was calculated. Between each run, column degradation was evaluated by running the standard compounds at pH=7.4.
(§7) The retention time of each compound was determined using the Esquire Data Analysis software. The capacity factors k′app were calculated using the equation: k′app=(tr−t0)/t0 where the tr is the retention time, and t0 is the dead time. The final ^surfaceKa and ^bulkKa were calculated by nonlinear least square curve fitting of the following equations:
(§8) k′app=k′HA([H^+]+^surfaceKa)/([H^+]+^bulkKa) (Eq. 7 as shown above).
(§9) k′app=k′A^−([H^+]/^surfaceKa+1)/([H^+]/+^bulkKa+1) (Eq. 8 as shown above).
(§10) [H^+] was calculated from the mobile phase pH values used for the experiment. The fitting parameters were k′A^−, ^surfaceKa, and ^bulkKa for the acidic compounds and kHA, ^surfaceKa, and ^bulkKa for the basic compounds.
(§11) The nonlinear fitting function is from the commercial software S-PLUS (MathSoft). Briefly, the function tries to estimate the parameters to minimize the sum of the squared differences between the response and the prediction. We collected data at 15 different pH values. […] Like all silica based chromatography material, Immobilized Artificial Membranes (IAM's) are unstable in the presence of chemically basic mobile phase, and column lifetimes decrease under these conditions. Thus it is not possible to continuously perfuse IAM columns with basic mobile phases for extended periods of time. […] In summary, 12 points were used to curve fit the data.
(§12) For each compound, the retention time (tr) was determined and the corresponding capacity factor (k′app) was calculated under various mobile phase pH conditions.

Description in data set [5]: as §1, §2, §3, §4, §5, §6, §7, §8, §9, §10, §11, §12
The source holds these as a separate data set.

Data set [6] can be described thus: Capacity factor (k′app) by LC/MS on an immobilized artificial membrane column at varied mobile phase pH. The class given is physicochemical.
The mark [7] stands for this setting: esterIAM.PC C10/C3 column, 0.01 M PBS mobile phase, 12 pH points 4.05 to 8.06, monovalent equations.
[8] abbreviates: 0.01 M PBS mobile phase, 12 pH points 4.05 to 8.06, monovalent equations.

Counter-ions that a name gives are not always drawn. Like-named read-outs stand apart in the source and are kept apart here.

On to `CCCCCCCCCCCCC/C=C/[C@@H](O)[C@H](CO)N(C)C` [DMS, N,N-Dimethyl-D-sphingosine], for which, in data set [1] (at physiological pH), the fraction protonated is 90%. For the same compound, the “membrane bound pKa value” in data set [1] is given as 8.8.
Turning to `CCCCNc1ccc(C(=O)OCCN(C)C)cc1` [TTC, tetracaine hydrochloride], the “location in the membrane” value in data set [2] (pH 5.5, positively charged form) is “resides near the phospholipid head group region”; in data set [2] (pH 9.0, uncharged form) it was “penetrates more deeply into the hydrocarbon region of the membrane”.
In the case of `CC[C@H]1[C@@H]2C[C@H]3[C@@H]4N(C)c5ccccc5[C@]45C[C@@H]([C@H]2[C@H]5O)N3[C@@H]1O` [ajmaline], the “bulkpKa1 (Ref.)” value in data set [3] (20° C., DMFA/H2O-80%) is listed as 8.1. In addition, the “surfacepKa (Exp.)” value in data set [4] (setting [7]) was 6.75. Besides, the “bulkpKa (Exp.)” value in data set [5] (setting [8]) was found to be 7.43.
On to `COc1cc2c(cc1OC)[C@@]13CCN4CC5=CCO[C@H]6CC(=O)N2[C@H]1[C@H]6[C@H]5C[C@H]43` [brucine], for which the “bulkpKa1 (Ref.)” value in data set [3] (conditions not given) is 6.04. Moreover, the “bulkpka2 (Ref.)” value in data set [3] is recorded as 11.70. For the same compound, in data set [4] (setting [7]), the “surfacepKa (Exp.)” value worked out at 6.55. Besides, in data set [5] (setting [8]), the “bulkpKa (Exp.)” value is 7.9.
In the case of `CN(C)CCOC(C)(c1ccccc1)c1ccccn1` (centres unmarked) [doxylamine], in data set [3] (conditions not given), the “bulkpKa1 (Ref.)” value is listed as 7.64. The “bulkpka2 (Ref.)” value in data set [3] is 9.20. Also, the “surfacepKa (Exp.)” value in data set [4] (setting [7]) is given as 6.72. Further, the “bulkpKa (Exp.)” value in data set [5] (setting [8]) was 7.93.
As to `CCC[C@@H]1C[C@@H](C(=O)N[C@@H]([C@H]2O[C@H](SC)[C@H](O)[C@@H](O)[C@H]2O)[C@@H](C)O)N(C)C1` [lincomycin], the “bulkpKa1 (Ref.)” value in data set [3] (conditions not given) is recorded as 7.5. Also, the “surfacepKa (Exp.)” value in data set [4] is 6.28. Besides, the “bulkpKa (Exp.)” value in data set [5] turned out to be 7.54.
For `COc1ccc(OC)c(C(O)CNC(=O)CN)c1` (centres unmarked) [midodrine], the “bulkpKa1 (Ref.)” value in data set [3] (0.3% aq. soln) was 7.80. Further, the “surfacepKa (Exp.)” value in data set [4] was 6.18. The “bulkpKa (Exp.)” value in data set [5] is listed as 6.65.
With `Cc1cc(-c2ccccc2)nnc1NCCN1CCOCC1` [minaprine], in data set [3] (conditions not given), the “bulkpKa1 (Ref.)” value is 7.05. The “bulkpka2 (Ref.)” value in data set [3] was 4. In addition, the “surfacepKa (Exp.)” value in data set [4] is 5.75. Besides, the “bulkpKa (Exp.)” value in data set [5] was 6.75.
As to `CCn1cc(C(=O)O)c(=O)c2ccc(C)nc21` [nalldixic acid], the “bulkpKa1 (Ref.)” value in data set [3] (conditions not given) was 6.02. Besides, in data set [4] (setting [7]), the “surfacepKa (Exp.)” value stood at 7.54. Further, the “bulkpKa (Exp.)” value in data set [5] (setting [8]) was 6.03.
Take `C=C1CC[C@@]2(O)[C@H]3Cc4ccc(O)c5c4[C@@]2(CCN3CC2CC2)[C@H]1O5` [nalmefene]: the “bulkpKa1 (Ref.)” value in data set [3] (conditions not given) is reported as 7.63. In data set [4] (setting [7]), the “surfacepKa (Exp.)” value worked out at 6.88. In data set [5] (setting [8]), the “bulkpKa (Exp.)” value is recorded as 7.81.
As to `C=CCN1CC[C@]23c4c5ccc(O)c4O[C@H]2[C@@H](O)C=C[C@H]3[C@H]1C5` [nalorphine], the “bulkpKa1 (Ref.)” value in data set [3] (conditions not given) is on record as 7.8. The “surfacepKa (Exp.)” value in data set [4] (setting [7]) was 6.04. The “bulkpKa (Exp.)” value in data set [5] (setting [8]) is recorded as 7.63.
Regarding `C=CCN1CC[C@]23c4c5ccc(O)c4O[C@H]2C(=O)CC[C@@]3(O)[C@H]1C5` [naloxone], the “surfacepKa (Exp.)” value in data set [4] (setting [7]) was determined as 6.24. Also, in data set [5] (setting [8]), the “bulkpKa (Exp.)” value was determined as 7.84.
Take `CC1COc2c(N3CCN(C)CC3)c(F)cc3c(=O)c(C(=O)O)cn1c23` (centres unmarked) [ofloxacin]: the “bulkpKa1 (Ref.)” value in data set [3] (conditions not given) is recorded as 5.74. Also, in data set [3], the “bulkpka2 (Ref.)” value is listed as 7.9. For the same compound, the “surfacepKa (Exp.)” value in data set [4] (setting [7]) was 7.32. Moreover, in data set [5] (setting [8]), the “bulkpKa (Exp.)” value amounted to 6.84.
For `COc1cc(NS(=O)(=O)c2ccc(N)cc2)nc(OC)n1` [sulfadimethoxine], the “surfacepKa (Exp.)” value in data set [4] (setting [7]) is given as 7.64. Also, the “Capacity Factor (k′app) on IAM.PC Surface” value (from here on “Capacity Factor (k′app)”) in data set [6] (mobile phase pH 4.05) was 152.07; in data set [6] (mobile phase pH 4.53 (not used for curve fit)) it was 131.83; in data set [6] (mobile phase pH 5.01) it was 131.23; in data set [6] (mobile phase pH 5.51) it was 116.77; in data set [6] (mobile phase pH 6.10), 67.79; in data set [6] (mobile phase pH 6.38), 46.54. Also, the “Capacity Factor (k′app)” value in data set [6] (mobile phase pH 6.71) is listed as 28.10; in data set [6] (mobile phase pH 7.00), 19.48; in data set [6] (mobile phase pH 7.17) it was 13.49; in data set [6] (mobile phase pH 7.45) it was 8.24; in data set [6] (mobile phase pH 7.69), 6.40; in data set [6] (mobile phase pH 7.91), 4.85. The “Capacity Factor (k′app)” value in data set [6] (mobile phase pH 8.06) is listed as 3.52; in data set [6] (mobile phase pH 8.81 (column degradation, not used for curve fit)), 2.84; in data set [6] (mobile phase pH 10.42 (column degradation, not used for curve fit)), 0.71. The “bulkpKa (Exp.)” value in data set [5] (setting [8]) is 6.02.
On to `COc1cc2nc(N3CCN(C(=O)C4CCCO4)CC3)nc(N)c2cc1OC` (centres unmarked) [terazosin], for which the “bulkpKa1 (Ref.)” value in data set [3] (0.1 N NaOH) is 7.1. Besides, the “surfacepKa (Exp.)” value in data set [4] is on record as 6.17. In addition, the “bulkpKa (Exp.)” value in data set [5] is recorded as 6.65.
On to `CC(=O)CC(c1ccccc1)c1c(O)c2ccccc2oc1=O` (centres unmarked) [warfarin], for which the “surfacepKa (Exp.)” value in data set [4] (setting [7]) was found to be 7. The “bulkpKa (Exp.)” value in data set [5] (setting [8]) worked out at 5.43.
